Source: patent US12121746B2, “Energy augmentation structures, energy emitters or energy collectors containing the same, and their use in methods and systems for treating cell proliferation disorders” (priority 2019, dated 2024)
Like-named read-outs stand apart in the source and are kept apart here.

Columns and labels:
[1] = system: syngeneic 4T1-HER2 tumors; assay: In-vivo X-PACT trial on syngeneic tumors; set-up: species or system BALB/c mice; conditions: treatment arms with x-ray; 5 μM psoralen (AMT), 100 μg of phosphor; FIG. 54
Experimental: There were 4 arms of the trial: […] […] There were 6-8 mice per arm, and the study was repeated a second time, yielding effective sample sizes of 12-16. […] A consistent x-ray irradiation technique was used for all arms (except saline control) which was 2 Gy delivered at 75 kVp by 30 mA in 3 minutes.

[2] = system: CT2A (murine malignant glioma); assay: UV light activated psoralen, Cell-Titer-Glo Luminescence Cell Viability Assay; assay type: cell-based; conditions: psoralen 40 ρM; UV light 0, 0.25, 0.5, 1.0 J/cm^2; N=4; FIG. 51A
Experimental: (§1) Metabolic cell viability was also assessed visually using Methylene blue staining and ATP-induced Luminescence imaging (Cell-Titer-Glo® Luminescence Cell Viability Assay). The luminescence imaging permitted investigation of the cytotoxicity of psoralen activated directly with a UV lamp, and in the absence of phosphors and x-ray radiation. […] The psoralen concentration was 40 ρM.

4T1 = assay: as above; assay type: cell-based, murine; conditions: psoralen 40 ρM; UV light 0, 0.25, 0.5, 1.0 J/cm^2; N=4; FIG. 51A
Experimental: as §1

KP158B (sarcoma) = assay: as above; assay type: cell-based, murine; conditions: psoralen 40 ρM; UV light 0, 0.25, 0.5, 1.0 J/cm^2; N=4; FIG. 51A
Experimental: as §1

4T1-HER2 cells = conditions: multi-variable regression on 36 independent irradiation experiments; irradiated
Experimental: In-vitro X-PACT studies were conducted on cells prepared in the following manner. Cells were incubated in appropriate growing media and buffers before being trypsinized and plated evenly onto twelve (12) well plates for 24 hours. […] The plates were then irradiated with x-rays by placing the plate at a known distance from the x-ray source (e.g., 50 cm). After irradiation the cells were incubated on the plate for 48 hours prior to performing flow cytometry. For compatibility with 96-well Guava Nexin® assay, the remaining cells were again trypsinized (after the 48 hour incubation) and plated onto a 96-well plate. The phosphors used in this evaluation were designated as NP 200 and GTP 4300. […]
Cells plated in 12-well plates, where individual wells in each plate may receive different experimental conditions (e.g. psoralen concentration), but the same x-ray dose (i.e. all wells in a given plate receive the same x-ray dose). The first metric is metabolically viable cell count (or cell viability) determined from the number of whole cells per well as determined using forward scattering (FSC). […] (All wells on a given plate receive the same dose.) The second metric is Annexin V (+) signal, which is the fraction of the metabolically viable cells which expressed a positive Annexin V signal as determined by flow cell cytometry, and include any cells advancing toward early or late apoptotic cell death. […]

[3] = in vivo; cited from earlier work
[4] = cited from earlier work

O=c1ccc2cc3ccoc3cc2o1 [psoralen]
tumor growth effect [1]: slightly higher component effect
viable cells [2]: reduce viable cells
viable cells (4T1): reduce viable cells
viable cells (KP158B (sarcoma)): reduce viable cells
cytotoxicity (Annexin V signal) (4T1-HER2 cells): neither psoralen nor phosphor alone had a strong effect

Vitamin B12
route of excretion [3]: excreted by glomerular filtration

Oc1cccc(-c2c3nc(c(-c4cccc(O)c4)c4ccc([nH]4)c(-c4cccc(O)c4)c4nc(c(-c5cccc(O)c5)c5ccc2[nH]5)CC4)C=C3)c1 [Foscan, Tetra (m-hydroxyphenyl) chlorin]
Length of photosensitization ([4]; Table 3): 2 weeks
duration of skin photosensitivity [4]: approximately 2 weeks

CC(=O)[O-].CC(=O)[O-].CCc1c(CC)c2cc3nc(cnc4cc(OCCOCCOCCOC)c(OCCOCCOCCOC)cc4ncc4nc(cc1[n-]2)C(CCCO)=C4C)C(C)=C3CCCO.O.[Lu+3] [Lutetium texahyrin, Motexafin lutetium]
Length of photosensitization ([4]; in vivo): 24 to 48 h
duration of skin photosensitivity ([4]; in vivo): 24 to 48 h
